Data as given in US7910599B2 (priority 2005, dated 2011).
“Also recorded” adds a separate entry of the source.

Tests used:
rats = experiment: Rats kept continually on antagonist in the food, alcohol drinking; type: in vivo, rat; conditions: large doses in the food, continual presence; less reduction than selective extinction with naloxone
humans [1] = conditions: highly palatable versus less pleasant tasting foods; cited from earlier work
alcoholics = conditions: cited from earlier work
[2] = tested on: patients suffering from binge eating; conditions: 50 mg once, twice or 3 times daily; cited from earlier work
humans [3] = conditions: cited from earlier work
[4] = continual administration; cited from earlier work
Male Wistar rats = experiment: Selective extinction in alcohol-experienced rats: naloxone before alcohol access, saccharin access without injection; type: in vivo, rat
Procedure: The example included here is a prior preclinical experiment in which the alternative opioidergically-reinforced behavior was saccharin drinking. Alcohol experienced rats had continual access to food and water. Alcohol solution was available for only an hour a day for 2 to 4 days. On the next day or two, saccharin solution instead was available. Naloxone (or saline for the control group) was injected prior to the alcohol session.
Male Wistar rats (n=26) were individually housed with daily access to 10% ethanol, with food and water always present. After 2 months prior experience, the rats were switched to having 2-4 alcohol-access days interspersed with 1 or 2 days when saccharin solution (1 g/l) was available for 1 hr. […] No injections were made prior to saccharin access.

humans [5] = conditions: acute study; cited from earlier work
[6] = subcutaneous naloxone prior to alcohol access, dose reduced from 10.000 to 0.005 mg/kg

C=C1CC[C@@]2(O)[C@H]3Cc4ccc(O)c5c4[C@@]2(CCN3CC2CC2)[C@H]1O5 [nalmefene]
alcohol drinking (rats): significantly lowered | food intake (humans [1]): suppresses intake of highly palatable foods but not that of less pleasant tasting ones

O=C1CC[C@@]2(O)[C@H]3Cc4ccc(O)c5c4[C@@]2(CCN3CC2CC2)[C@H]1O5 [naltrexone]
alcohol drinking (rats): significantly lowered | efficacy in alcoholism when given during abstinence (alcoholics; naltrexone given during abstinence): tended to be worse than placebo | efficacy in alcoholism when paired with alcohol drinking (alcoholics; naltrexone paired with drinking (extinction method)): effective | maximum days per week (naltrexone and drinking) reported by complying patients (alcoholics; three-year follow-up, mean ± SEM): 1.5±0.4 days per week | treatment of binge eating versus placebo [2]: not significantly better than placebo | preference for saccharin (humans [3]): reduces | side-effects [4]: liver toxicity

C=CCN1CC[C@]23c4c5ccc(O)c4O[C@H]2C(=O)CC[C@@]3(O)[C@H]1C5 [naloxone]
saccharin drinking in the same animals (Male Wistar rats; first three weeks): significantly increased | alcohol drinking (Male Wistar rats; first three weeks, naloxone doses in the range previously found effective): practically abolished | alcohol drinking in comparison with saline controls and own prior levels (Male Wistar rats; subcutaneous naloxone prior to alcohol access (10% ethanol), dose progressively reduced from 10.000 to 0.005 mg/kg): strongly reduced; also recorded: significantly reduced | time alcohol drinking continued to be significantly reduced (Male Wistar rats; [6]): 8 weeks | time alcohol drinking was reduced to nearly zero for most rats (Male Wistar rats; [6]): 6 weeks | size of an eating binge (humans [5]): significantly reduced
